Source: patent publication US10087169B2, “Bicyclic PKM2 activators” (Agios Pharmaceuticals, Inc., priority 2010, dated 2018)

Biological target: PKM2 (Homo sapiens, UniProt P14618)
Assay: PKM2 Assay
Format: biochemical
Details: activation of PKM2; Tables 1-4
Procedure: • PKM2 stock enzyme solution was diluted in Reaction Buffer • 2 μL of compound was added into each well first, and then 180 μL of the Reaction Mix was added. • Reaction mixture with compound (without ADP) was incubated for 30 minutes at 4° C. • Plates were re-equilibrated to room temperature prior to adding 20 μL ADP to initiate the reaction. • Reaction progress was measured as changes in absorbance at 340 nm wavelength at room temperature (25° C.) Reaction Mix:
PKM2 (50 ng/well), ADP (0.7 mM), PEP (0.15 mM), NADH (180 μM), LDH (2 units) in Reaction Buffer

Sequence of PKM2 (P14618 whole entry): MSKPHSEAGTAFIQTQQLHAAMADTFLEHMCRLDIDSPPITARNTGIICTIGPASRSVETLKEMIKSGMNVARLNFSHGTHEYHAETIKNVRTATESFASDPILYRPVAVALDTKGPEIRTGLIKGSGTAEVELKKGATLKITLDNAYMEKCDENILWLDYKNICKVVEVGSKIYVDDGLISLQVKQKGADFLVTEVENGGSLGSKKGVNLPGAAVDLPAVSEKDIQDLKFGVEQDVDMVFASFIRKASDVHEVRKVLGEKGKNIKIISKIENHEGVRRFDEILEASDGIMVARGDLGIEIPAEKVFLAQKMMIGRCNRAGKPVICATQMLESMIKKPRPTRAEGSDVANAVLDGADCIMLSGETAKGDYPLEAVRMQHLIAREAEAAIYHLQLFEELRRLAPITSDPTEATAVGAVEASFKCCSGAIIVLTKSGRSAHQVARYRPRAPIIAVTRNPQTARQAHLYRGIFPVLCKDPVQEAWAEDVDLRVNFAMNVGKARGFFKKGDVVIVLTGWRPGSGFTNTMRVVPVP

AC50 [µM] | SMILES
< 0.1 | Cc1cc(NS(=O)(=O)c2ccc3c(c2)N(C)C(=O)OC3)ccc1F
< 0.1 | CN1C(=O)OCc2ccc(S(=O)(=O)Nc3ccc(F)c(Cl)c3)cc21
0.1 to 0.5 | CN1C(=O)OCc2cc(S(=O)(=O)Nc3ccc(F)c(Cl)c3)ccc21
0.1 to 0.5 | Cc1cc(NS(=O)(=O)c2ccc3c(c2)COC(=O)N3C)ccc1F
0.1 to 0.5 | CN1Cc2cc(S(=O)(=O)Nc3ccc(F)c(Cl)c3)ccc2OC1=O
0.1 to 0.5 | Cc1cc(NS(=O)(=O)c2ccc3c(c2)CN(C)C(=O)O3)ccc1F
> 0.5 | O=C1Oc2ccc(S(=O)(=O)Nc3ccc(F)c(Cl)c3)cc2CN1Cc1ccccc1
> 0.5 | Cc1cc(C)cc(NS(=O)(=O)c2ccc3c(c2)NC(=O)CO3)c1
> 0.5 | O=C1COc2ccc(S(=O)(=O)Nc3ccc(F)cc3)cc2N1
> 0.5 | O=C1COc2ccc(S(=O)(=O)Nc3ccc4c(c3)OCCO4)cc2N1
> 0.5 | COc1ccc(NS(=O)(=O)c2ccc3c(c2)NC(=O)CO3)cc1
> 0.5 | CN1C(=O)COc2ccc(S(=O)(=O)Nc3ccc4c(c3)OCCO4)cc21
< 0.1 | Cc1cc(C)cc(NS(=O)(=O)c2ccc3c(c2)N(C)C(=O)CO3)c1
> 0.5 | CN1C(=O)COc2ccc(S(=O)(=O)Nc3ccc(F)cc3)cc21
> 0.5 | COc1ccc(NS(=O)(=O)c2ccc3c(c2)N(C)C(=O)CO3)cc1
< 0.1 | Cc1cc(NS(=O)(=O)c2ccc3c(c2)N(C)C(=O)CO3)ccc1F
< 0.1 | CN1C(=O)COc2ccc(S(=O)(=O)Nc3ccc(F)c(Cl)c3)cc21
< 0.1 | CN1C(=O)COc2ccc(S(=O)(=O)Nc3cccc(Cl)c3)cc21
< 0.1 | CN1C(=O)COc2ccc(S(=O)(=O)Nc3ccc4c(c3)OCO4)cc21
< 0.1 | CN1CC(=O)Oc2ccc(S(=O)(=O)Nc3cccc(Cl)c3)cc21
< 0.1 | Cc1cc(NS(=O)(=O)c2ccc3c(c2)N(C)CC(=O)O3)ccc1F
< 0.1 | CN1CC(=O)Oc2ccc(S(=O)(=O)Nc3ccc(F)c(Cl)c3)cc21
